Data: ChEMBL document CHEMBL1128998, “Chemical synthesis, DNA cleavage and antitumor activity of molecules with (Z)-7-sulfonyl-3-hexene-1,5-diyne functionalities” (Bioorg Med Chem Lett, 1996)
In brackets after ≈: the same amount, converted by molar mass.

Columns and labels:
Assay type in all cases: functional, cell-based
Details in all cases: Homo sapiens
KB [1] = assay: Compound was tested in vitro for growth inhibition of KB, oral epidermoid cell line; Range=4-10 ug/ml
COLO 205 [2] = assay: Compound was tested in vitro for growth inhibition of COLO 205, colon cell line; Range=4-10 ug/ml
SK-BR-3 [3] = assay: Compound was tested in vitro for growth inhibition of SK-BR-3, breast adenocarcinoma cell line; Range=4-10 ug/ml
HepG2 [4] = assay: Compound was tested in vitro for growth inhibition of Hep G2, […] cell line.
MOLT-4 = assay: Compound was tested in vitro for growth inhibition of Molt-4, leukemia cell line.
HepG2 [5] = assay: Compound was tested in vitro for growth inhibition of Hep G2, […] cell line
HepG2 [6] = assay: Compound was tested in vitro for growth inhibition of Hep G2, […] cell line; Range=4-10 ug/ml
KB [7] = assay: Compound was tested in vitro for growth inhibition of KB, oral epidermoid cell line.
COLO 205 [8] = assay: Compound was tested in vitro for growth inhibition of COLO 205, colon cell line.
SK-BR-3 [9] = assay: Compound was tested in vitro for growth inhibition of SK-BR-3, […] cell line.

Row | IC50 (KB [1]) | IC50 (COLO 205 [2]) | IC50 (SK-BR-3 [3]) | IC50 (HepG2 [4]) | IC50 (MOLT-4) | IC50 (HepG2 [5]) | IC50 (HepG2 [6]) | IC50 (KB [7]) | IC50 (COLO 205 [8]) | IC50 (SK-BR-3 [9]) | Compound
1 | – | – | – | < 4 µg/mL | – | – | – | – | – | – | O=S(=O)(CC#Cc1ccccc1C#CCO)c1ccc2ccccc2c1
2 | – | – | – | – | < 4 µg/mL | – | 10 µg/mL (≈ 32.2 µM) | 10 µg/mL (≈ 32.2 µM) | < 4 µg/mL | < 4 µg/mL | O=S(=O)(CC#Cc1ccccc1C#CCO)c1ccccc1
3 | – | 10 µg/mL (≈ 27.7 µM) | 10 µg/mL (≈ 27.7 µM) | – | < 4 µg/mL | – | 10 µg/mL (≈ 27.7 µM) | 10 µg/mL (≈ 27.7 µM) | – | – | O=S(=O)(CC#Cc1cc2ccccc2cc1C#CCO)c1ccccc1

The remaining lines, values behind:

Row | Compound | IC50 (KB [1]) | IC50 (COLO 205 [2]) | IC50 (SK-BR-3 [3]) | IC50 (HepG2 [4]) | IC50 (MOLT-4) | IC50 (HepG2 [5]) | IC50 (HepG2 [6]) | IC50 (KB [7]) | IC50 (COLO 205 [8]) | IC50 (SK-BR-3 [9])
4 | COc1ccc(S(=O)(=O)CC#C/C=C\C#CCO)cc1 | 10 µg/mL (≈ 34.4 µM) | 10 µg/mL (≈ 34.4 µM) | 10 µg/mL (≈ 34.4 µM) | > 10 µg/mL | – | – | – | – | – | –
5 | O=S(=O)(CC#C/C=C\C#CCO)c1ccc2ccccc2c1 | 10 µg/mL (≈ 32.2 µM) | 10 µg/mL (≈ 32.2 µM) | 10 µg/mL (≈ 32.2 µM) | > 10 µg/mL | < 4 µg/mL | – | – | – | – | –
6 | COC(=O)c1ccccc1S(=O)(=O)CC#C/C=C\C#CCO | 10 µg/mL (≈ 31.4 µM) | 10 µg/mL (≈ 31.4 µM) | 10 µg/mL (≈ 31.4 µM) | > 10 µg/mL | – | – | – | – | – | –
7 | O=S(=O)(CC#C/C=C\C#CCO)c1ccccc1 | 10 µg/mL (≈ 38.4 µM) | 10 µg/mL (≈ 38.4 µM) | 10 µg/mL (≈ 38.4 µM) | – | – | > 10 µg/mL | – | – | – | –
